We go through six compounds from patent US20250215029A1 (Recludix Pharma, Inc., priority 2022, published 2025).

Read-outs that look alike come from different tables or passages of the source.

Assay [1] deals with T1, pY641-STAT6 in PBMC (Homo sapiens, UniProt P42226).
T1 construct: Cryopreserved Peripheral Blood Mononuclear Cells (PBMC) are from AllCells; host or cells: cryopreserved PBMC
T1 sequence (P42226 1-847): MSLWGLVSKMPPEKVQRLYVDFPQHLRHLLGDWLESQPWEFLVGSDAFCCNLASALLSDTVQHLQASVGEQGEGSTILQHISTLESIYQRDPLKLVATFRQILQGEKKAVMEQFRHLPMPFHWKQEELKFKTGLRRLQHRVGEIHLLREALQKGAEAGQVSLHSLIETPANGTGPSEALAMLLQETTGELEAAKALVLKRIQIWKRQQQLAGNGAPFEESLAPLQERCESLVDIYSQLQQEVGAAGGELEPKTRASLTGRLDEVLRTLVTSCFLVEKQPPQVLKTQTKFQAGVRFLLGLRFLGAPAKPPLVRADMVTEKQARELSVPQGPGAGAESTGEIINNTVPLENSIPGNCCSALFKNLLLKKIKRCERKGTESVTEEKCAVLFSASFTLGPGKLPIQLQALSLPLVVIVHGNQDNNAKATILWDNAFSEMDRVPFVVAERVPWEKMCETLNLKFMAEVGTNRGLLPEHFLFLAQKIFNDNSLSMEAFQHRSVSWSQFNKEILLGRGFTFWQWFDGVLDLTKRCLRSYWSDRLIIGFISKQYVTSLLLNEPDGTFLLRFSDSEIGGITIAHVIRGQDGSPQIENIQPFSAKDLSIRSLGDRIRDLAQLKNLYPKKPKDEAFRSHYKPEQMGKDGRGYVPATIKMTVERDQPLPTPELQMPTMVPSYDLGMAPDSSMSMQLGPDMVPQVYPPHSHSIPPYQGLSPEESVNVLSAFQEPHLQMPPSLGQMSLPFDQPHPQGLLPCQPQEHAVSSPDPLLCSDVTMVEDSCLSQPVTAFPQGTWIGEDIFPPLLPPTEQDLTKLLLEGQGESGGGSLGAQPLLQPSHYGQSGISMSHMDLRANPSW
Briefly: MSD-pSTAT-PBMC Assay (pSTAT6, IL-4 stimulated). As to conditions: compound 3 hrs, then 1 ng/mL IL-4 for 10 min, Table 115. In kind it is cell-based. The gist of the method: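 Cells are preincubated with compound for 3 hrs, then stimulated for 10 min, IL-4 at 1 ng/mL driving STAT6 phosphorylation and IL-6 at 10 ng/mL driving STAT3. Phospho-STAT in lysates is quantified by MSD immunoassay, and IC50 is fitted after subtracting unstimulated wells.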

Assay [2] addresses T2, pY705-STAT3 in PBMC (Homo sapiens, UniProt P40763).
T2 construct: Cryopreserved Peripheral Blood Mononuclear Cells (PBMC) are from AllCells; host or cells: cryopreserved PBMC
Put plainly: MSD-pSTAT-PBMC Assay (pSTAT3, IL-6 stimulated). It is filed as cell-based. As to conditions: PBMC, compound 3 hrs, then 10 ng/mL IL-6 for 10 min; Table 115; read-out: STAT3. The gist of the method:
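PBMC (human, cryopreserved, overnight recovery) + cpd 3 hrs → IL-6 10 ng/mL (STAT3) or IL-4 1 ng/mL (STAT6) ×10 min → lysis with protease/phosphatase inhibitors → MSD capture/phospho detection. IC50, variable slope, DMSO-normalized.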

T2 sequence (P40763 whole entry): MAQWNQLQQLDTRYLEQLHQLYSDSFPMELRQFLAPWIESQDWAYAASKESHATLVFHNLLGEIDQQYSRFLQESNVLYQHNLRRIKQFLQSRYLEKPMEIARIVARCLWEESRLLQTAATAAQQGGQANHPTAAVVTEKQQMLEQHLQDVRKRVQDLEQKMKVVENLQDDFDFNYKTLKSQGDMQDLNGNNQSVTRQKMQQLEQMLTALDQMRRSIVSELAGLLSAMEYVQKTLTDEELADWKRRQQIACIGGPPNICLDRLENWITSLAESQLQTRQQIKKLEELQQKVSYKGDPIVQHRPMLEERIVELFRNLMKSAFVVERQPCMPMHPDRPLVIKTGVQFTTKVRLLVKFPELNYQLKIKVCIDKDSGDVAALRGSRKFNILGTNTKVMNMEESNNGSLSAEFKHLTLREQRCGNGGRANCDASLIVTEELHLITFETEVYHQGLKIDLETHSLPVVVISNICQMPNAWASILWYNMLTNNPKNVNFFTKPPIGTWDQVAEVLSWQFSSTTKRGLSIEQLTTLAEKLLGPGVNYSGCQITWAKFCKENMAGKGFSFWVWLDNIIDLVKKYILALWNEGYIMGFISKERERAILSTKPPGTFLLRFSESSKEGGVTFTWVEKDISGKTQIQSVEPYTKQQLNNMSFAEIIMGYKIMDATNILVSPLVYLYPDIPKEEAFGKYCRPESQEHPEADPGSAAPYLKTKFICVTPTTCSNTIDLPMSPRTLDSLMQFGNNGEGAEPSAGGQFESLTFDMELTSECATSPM

Take `CCCOC(=O)[C@H](C)NP(=O)(Oc1ccccc1)C(F)c1ccc2sc(C(=O)N[C@H]3CCC[C@H]4CC[C@@H](C(=O)N5CC(c6cnccc6F)C5)N4C3=O)cc2c1` (stereo partly drawn) [Compound 943, propyl ((fluoro(2-(((3S,6S,9aS)-3-(3-(4-fluoropyridin-3-yl)azetidine-1-carbonyl)-5-oxooctahydro-1H-pyrrolo[1,2-a]azepin-6-yl)carbamoyl)benzo [b]thiophen-5-yl)methyl)(phenoxy)phosphoryl)-L-alaninate]: the IC50 in assay [1] (STAT6, PBMC) was over 3000 nM; in assay [2], under 100 nM.
Regarding `CC(C)CC(=O)SCCOP(=O)(OCCSC(=O)CC(C)C)C(F)(F)c1ccc2sc(C(=O)N[C@H]3CCC[C@H]4CC[C@@H](C(=O)N5CC(c6ncccn6)C5)N4C3=O)cc2c1` [Compound 961, S,S′-((((difluoro(2-(((3S,6S,9aS)-5-oxo-3-(3-(pyrimidin-2-yl)azetidine-1-carbonyl)octahydro-1H-pyrrolo[1,2-a]azepin-6-yl)carbamoyl)benzo [b]thiophen-5-yl)methyl)phosphoryl)bis(oxy))bis(ethane-2,1-diyl)) bis(3-methylbutanethioate)], the IC50 in assay [1] (PBMC, read-out: STAT6) is 1000 to 3000 nM; in assay [2], under 100 nM.
The matching figures for `CC(C)(C)C(=O)SCCOP(=O)(OCCSC(=O)C(C)(C)C)C(F)(F)c1ccc2sc(C(=O)N[C@H]3CCC[C@H]4CC[C@@H](C(=O)N5CC(c6ncccn6)C5)N4C3=O)cc2c1` [Compound 962, S,S′-((((difluoro(2-(((3S,6S,9aS)-5-oxo-3-(3-(pyrimidin-2-yl)azetidine-1-carbonyl)octahydro-1H-pyrrolo[1,2-a]azepin-6-yl)carbamoyl)benzo [b]thiophen-5-yl)methyl)phosphoryl)bis(oxy))bis(ethane-2,1-diyl))bis(2,2-dimethyl-propanethioate)]: over 3000 nM and under 100 nM.
Turning to `CCCOC(=O)[C@H](C)NP(=O)(Cc1ccc2sc(C(=O)N[C@H]3CCC[C@H]4CC[C@@H](C(=O)N5CC(c6cnccc6N(C)C)C5)N4C3=O)cc2c1)Oc1ccccc1` (stereo partly drawn) [Compound 973, propyl (((2-(((3S,6S,9aS)-3-(3-(4-(dimethylamino)pyridin-3-yl)azetidine-1-carbonyl)-5-oxooctahydro-1H-pyrrolo[1,2-a]azepin-6-yl)carbamoyl)benzo [b]thiophen-5-yl)methyl)(phenoxy)phosphoryl)-L-alaninate], the IC50 in assay [1] (STAT6, PBMC) is over 3000 nM; in assay [2] it was under 100 nM.
In the case of `CC(C)(C)C(=O)SCCOP(=O)(OCCSC(=O)C(C)(C)C)C(F)c1ccc2sc(C(=O)N[C@H]3CCC[C@H]4CC[C@@H](C(=O)N5CC(c6cnccc6F)C5)N4C3=O)cc2c1` (stereo partly drawn) [Compound 984, S,S′-((((fluoro(2-(((3S,6S,9aS)-3-(3-(4-fluoropyridin-3-yl)azetidine-1-carbonyl)-5-oxooctahydro-1H-pyrrolo[1,2-a]azepin-6-yl)carbamoyl)benzo [b]thiophen-5-yl)methyl)phosphoryl)bis(oxy))bis(ethane-2,1-diyl))bis(2,2-dimethyl-propanethioate)], the IC50 is over 3000 nM in assay [1] (PBMC, read-out: STAT6) and under 100 nM in assay [2].
Regarding `CC(C)CC(=O)SCCOP(=O)(Oc1cccc(C#N)c1)C(F)(F)c1ccc2sc(C(=O)N[C@H]3CCC[C@H]4CC[C@@H](C(=O)N5CC(c6cccnc6)C5)N4C3=O)cc2c1` (stereo partly drawn) [Compound 1008, S-(2-(((3-cyanophenoxy) (difluoro(2-(((3S,6S,9aS)-5-oxo-3-(3-(pyridin-3-yl)azetidine-1-carbonyl)octahydro-1H-pyrrolo[1,2-a]azepin-6-yl)carbamoyl)benzo [b]thiophen-5-yl)methyl)phosphoryl)oxy)ethyl) 3-methylbutanethioate], the IC50 in assay [1] (STAT6, PBMC) is over 3000 nM; in assay [2], 100 to 1000 nM.
